Data reported in patent publication US12577196B2 (priority 2019, dated 2026).
In brackets after ≈: the same amount, converted by molar mass. Like-named read-outs stand apart in the source and are kept apart here.

How the values were obtained:
[1] = system: Staphylococcus aureus ATCC 6538; test: MIC determination by broth micro dilution (Example 5); format: cell-based; conditions: ATCC6538; Staphylococcus aureus ATCC 6538, 4.5×10^3 Cfu/Ml
Method: Minimum Inhibitory Concentration (MIC) Determination by Broth Micro Dilution
(§1) Standardisation of Inoculum
The suspensions were mixed. […] The inoculums were 30 mixed.
(§2) Inoculation and Incubation
100 μl of the initial concentration of the sample was added to the first well.
Staphylococcus aureus ATCC 6538 4.5×10^3 Cfu/Ml

[2] = system: Salmonella enterica serovar Typhimurium ATCC 14028
[3] = in vitro; conditions: human
[4] = system: Candida albicans ATCC 10231; format: cell-based; conditions: ATCC10231
Method: (§3) MIC Determination by Broth Micro Dilution
as §1
(§4) The inoculums were mixed.
as §2

[5] = system: Candida albicans NCTC 885-653; format: cell-based; set-up: unit not given beside the values
Method: as §3, §1, §4, §2

[6] = format: cell-based; conditions: Table 12, strain not named
Method: as §3, §1, §4, §2

Compound	MIC [1]	MIC ([2]; Salmonella enterica)	MIC [4]	also measured
Cc1ccc(C(C)C)c(OC(=O)C[N+](C)(C)CCCCCCCCCC[N+](C)(C)CCCCCCCCCC[N+](C)(C)CC(=O)Oc2cc(C(C)C)ccc2C)c1.[Br-].[Cl-].[Cl-] [Comparative compound 1, reference compound]	1.95 µg/mL			
Cc1ccc(C(C)C)cc1OC(=O)C[N+](C)(C)CCCCCCCCCC[N+](C)(C)CC(=O)Oc1cc(C(C)C)ccc1C [Formula IV, N1,N10-bis(2-(5-isopropyl-2-methylphenoxy)−2-oxoethyl)-N1,N1,N10,N10-tetramethyldecane-1,10-diaminium dichloride]		3.9 µg/mL	3.9 to 7.8 µg/mL	MIC ([2]; Salmonella enterica serovar Typhimurium ATCC 14028 (log 4 conditions)): 3.9; CC50 [3]: > 120 µg/mL
Cc1ccc(C(C)C)c(OC(=O)C[N+](C)(C)CCCCCCCCCC[N+](C)(C)CC(=O)Oc2cc(C)ccc2C(C)C)c1 [Formula V, N1,N10-bis(2-(2-isopropyl-5-methylphenoxy)−2-oxoethyl)-N1,N1,N10,N10-tetramethyldecane-1,10-diaminium dichloride]			3.9 to 7.8 µg/mL	MIC (Table 11, head not given) [5]: 3.9-7.8; MIC [6]: 0.98 µg/mL
Cc1ccc(C(C)C)c(OC(=O)C[N+](C)(C)CCCCCCCCCC[N+](C)(C)CCCCCCCCCC[N+](C)(C)CC(=O)Oc2cc(C)ccc2C(C)C)c1 [Formula VII, N1-(2-(2-isopropyl-5-methylphenoxy)−2-oxoethyl)-N10-(10-((2-(2-isopropyl-5-methylphenoxy)-2-oxoethyl)dimethylammonio)decyl)-N1,N1,N10,N10-tetramethyldecane-1,10-diaminium bromide dichloride]	0.98 µg/mL			
CN[C@H](CC(C)C)C(=O)N[C@H]1C(=O)N[C@@H](CC(N)=O)C(=O)N[C@H]2C(=O)N[C@H]3C(=O)N[C@H](C(=O)N[C@H](C(=O)O)c4cc(O)cc(O)c4-c4cc3ccc4O)[C@H](O)c3ccc(c(Cl)c3)Oc3cc2cc(c3O[C@@H]2O[C@H](CO)[C@@H](O)[C@H](O)[C@H]2O[C@H]2C[C@](C)(N)[C@H](O)[C@H](C)O2)Oc2ccc(cc2Cl)[C@H]1O [Vancomycin, reference compound]		78 µg/mL (≈ 53.8 µM)		
